Results as given in PMC8836295, “Essential role of pyrophosphate homeostasis mediated by the pyrophosphate-dependent phosphofructokinase in Toxoplasma gondii” (PLoS Pathogens, 2022).

Target: T1, PFK2-N (Toxoplasma gondii, UniProt A0A125YKV6)
T1 construct: gene PFKII; N-terminal phosphofructokinase domain, residues 1-595; recombinant, E. coli Transetta (DE3), plasmid pESUMO-PFK2N (His-SUMO vector), Ni2+ column
T1 sequence (A0A125YKV6 1-595): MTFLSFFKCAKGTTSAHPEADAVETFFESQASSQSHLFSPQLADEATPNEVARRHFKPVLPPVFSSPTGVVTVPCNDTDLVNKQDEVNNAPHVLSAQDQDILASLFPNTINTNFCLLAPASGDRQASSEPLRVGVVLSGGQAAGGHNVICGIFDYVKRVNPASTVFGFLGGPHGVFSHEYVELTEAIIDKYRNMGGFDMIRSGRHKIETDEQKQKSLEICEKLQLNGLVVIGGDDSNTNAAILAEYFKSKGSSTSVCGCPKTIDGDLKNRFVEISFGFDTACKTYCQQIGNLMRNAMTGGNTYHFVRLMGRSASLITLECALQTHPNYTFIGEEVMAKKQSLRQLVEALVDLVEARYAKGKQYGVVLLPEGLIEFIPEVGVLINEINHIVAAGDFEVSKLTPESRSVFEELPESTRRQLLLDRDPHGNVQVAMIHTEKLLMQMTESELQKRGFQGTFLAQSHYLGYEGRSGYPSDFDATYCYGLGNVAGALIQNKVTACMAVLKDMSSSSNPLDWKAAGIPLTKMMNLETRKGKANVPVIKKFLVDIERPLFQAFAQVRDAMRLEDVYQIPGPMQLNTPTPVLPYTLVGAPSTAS
Test: NADH-coupled OD340 assay (PFP activity kit)
Assay type: biochemical
Details: co-substrate F6P 4 mM

In the case of `O=P(O)(O)OP(=O)(O)O` [PPi], the “NADH-coupled OD340 assay (PFP activity kit)” value is reported as “individually purified and assayed for the PPi dependent PFK activity”.
